ChEMBL document CHEMBL4680313 (Bioorg Med Chem, 2021)
Several values for one entry are separate records, joined by “and”; a condition that tells them apart may be missing. Identical values can stand only once. One block for each molecule: values may come before it.

Experiments:
[1] = biological target: T1, 5-hydroxytryptamine receptor 2C (Homo sapiens) (UniProt P28335); assay: Displacement of [3H]-mesulergine from human 5HT2C receptor at 10 uM by liquid scintillation counting
T1 sequence (whole entry): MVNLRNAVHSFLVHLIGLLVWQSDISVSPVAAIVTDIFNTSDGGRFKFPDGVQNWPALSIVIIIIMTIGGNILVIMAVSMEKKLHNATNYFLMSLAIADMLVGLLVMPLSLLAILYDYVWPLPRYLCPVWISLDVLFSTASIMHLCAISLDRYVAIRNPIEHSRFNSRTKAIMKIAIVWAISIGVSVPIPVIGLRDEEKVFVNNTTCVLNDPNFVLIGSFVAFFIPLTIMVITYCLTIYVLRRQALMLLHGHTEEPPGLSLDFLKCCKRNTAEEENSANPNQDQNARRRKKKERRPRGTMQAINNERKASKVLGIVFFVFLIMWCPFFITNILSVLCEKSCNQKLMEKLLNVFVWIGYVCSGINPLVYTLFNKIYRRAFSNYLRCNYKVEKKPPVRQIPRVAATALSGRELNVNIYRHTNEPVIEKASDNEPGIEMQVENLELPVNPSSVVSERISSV

[2] = biological target: T2, D(2) dopamine receptor (Homo sapiens, UniProt P14416)
[3] = biological target: T3, D(3) dopamine receptor (Homo sapiens, UniProt P35462)
[4] = biological target: T4, D(4) dopamine receptor (Homo sapiens, UniProt P21917)
T4 sequence (P21917 whole entry): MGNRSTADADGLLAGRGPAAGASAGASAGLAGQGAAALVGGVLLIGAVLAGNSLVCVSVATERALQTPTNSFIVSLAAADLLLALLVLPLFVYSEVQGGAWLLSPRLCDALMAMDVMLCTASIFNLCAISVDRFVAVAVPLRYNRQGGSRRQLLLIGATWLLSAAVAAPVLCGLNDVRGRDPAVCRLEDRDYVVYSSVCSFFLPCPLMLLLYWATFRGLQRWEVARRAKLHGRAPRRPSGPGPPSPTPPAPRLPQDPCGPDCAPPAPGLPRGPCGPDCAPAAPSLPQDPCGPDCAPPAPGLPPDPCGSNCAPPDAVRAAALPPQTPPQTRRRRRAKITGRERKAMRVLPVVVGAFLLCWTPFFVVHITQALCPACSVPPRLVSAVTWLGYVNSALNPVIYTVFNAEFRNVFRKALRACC

[5] = biological target: T5, 5-hydroxytryptamine receptor 1A (Homo sapiens, UniProt P08908)
T5 sequence (P08908 whole entry): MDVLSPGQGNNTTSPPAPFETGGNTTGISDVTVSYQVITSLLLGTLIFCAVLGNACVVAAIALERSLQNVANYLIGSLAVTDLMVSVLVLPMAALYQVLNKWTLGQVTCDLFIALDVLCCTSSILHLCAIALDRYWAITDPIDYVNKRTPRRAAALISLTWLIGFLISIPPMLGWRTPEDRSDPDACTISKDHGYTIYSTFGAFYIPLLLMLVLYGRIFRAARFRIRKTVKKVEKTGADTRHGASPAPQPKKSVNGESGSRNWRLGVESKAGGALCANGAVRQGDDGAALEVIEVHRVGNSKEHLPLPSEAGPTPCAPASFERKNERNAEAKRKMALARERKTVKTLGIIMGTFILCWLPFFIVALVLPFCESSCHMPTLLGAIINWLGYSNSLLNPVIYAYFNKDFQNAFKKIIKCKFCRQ

[6] = biological target: T6, 5-hydroxytryptamine receptor 2A (Homo sapiens, UniProt P28223)
[7] = biological target: T7, 5-hydroxytryptamine receptor 7 (Homo sapiens, UniProt P34969)
[8] = biological target: T8, 5-hydroxytryptamine receptor 2C (Homo sapiens, UniProt P28335)
T8 sequence (P28335 whole entry): T1 sequence (whole entry)

[9] = biological target: Sodium-dependent serotonin transporter (Homo sapiens, UniProt P31645)
[10] = biological target: T2, D(2) dopamine receptor; assay: Displacement of [3H]-N-methylspiperone from human dopamine D2 receptor at 10 uM by liquid scintillation counting
[11] = biological target: T3, D(3) dopamine receptor; assay: Displacement of [3H]-N-methylspiperone from human dopamine D3 receptor at 10 uM by liquid scintillation counting
[12] = biological target: T9, 5-hydroxytryptamine receptor 1A (Homo sapiens) (UniProt P08908); assay: Displacement of [3H]-8-OH-DPAT from human 5HT1A receptor at 10 uM by liquid scintillation counting
T9 sequence (whole entry): T5 sequence (P08908 whole entry)

[13] = biological target: T6, 5-hydroxytryptamine receptor 2A; assay: Displacement of [3H]-mesulergine from human 5HT2A receptor at 10 uM by liquid scintillation counting
[14] = biological target: T7, 5-hydroxytryptamine receptor 7; assay: Displacement of [3H]-LSD from human 5HT7 receptor at 10 uM by liquid scintillation counting

T2 sequence (P14416 whole entry): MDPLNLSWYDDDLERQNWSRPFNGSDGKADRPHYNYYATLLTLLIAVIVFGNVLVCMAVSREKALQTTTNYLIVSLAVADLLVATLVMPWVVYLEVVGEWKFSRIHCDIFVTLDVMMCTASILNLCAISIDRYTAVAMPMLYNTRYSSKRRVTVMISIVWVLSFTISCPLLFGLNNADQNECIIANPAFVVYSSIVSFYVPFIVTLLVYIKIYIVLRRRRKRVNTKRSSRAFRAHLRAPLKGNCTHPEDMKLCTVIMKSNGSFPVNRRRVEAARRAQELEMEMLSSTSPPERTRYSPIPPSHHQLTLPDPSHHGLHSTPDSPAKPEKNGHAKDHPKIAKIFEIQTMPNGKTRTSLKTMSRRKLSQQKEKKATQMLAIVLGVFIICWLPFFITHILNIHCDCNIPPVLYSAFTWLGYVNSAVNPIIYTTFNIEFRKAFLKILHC
Sequence of Sodium-dependent serotonin transporter (P31645 whole entry): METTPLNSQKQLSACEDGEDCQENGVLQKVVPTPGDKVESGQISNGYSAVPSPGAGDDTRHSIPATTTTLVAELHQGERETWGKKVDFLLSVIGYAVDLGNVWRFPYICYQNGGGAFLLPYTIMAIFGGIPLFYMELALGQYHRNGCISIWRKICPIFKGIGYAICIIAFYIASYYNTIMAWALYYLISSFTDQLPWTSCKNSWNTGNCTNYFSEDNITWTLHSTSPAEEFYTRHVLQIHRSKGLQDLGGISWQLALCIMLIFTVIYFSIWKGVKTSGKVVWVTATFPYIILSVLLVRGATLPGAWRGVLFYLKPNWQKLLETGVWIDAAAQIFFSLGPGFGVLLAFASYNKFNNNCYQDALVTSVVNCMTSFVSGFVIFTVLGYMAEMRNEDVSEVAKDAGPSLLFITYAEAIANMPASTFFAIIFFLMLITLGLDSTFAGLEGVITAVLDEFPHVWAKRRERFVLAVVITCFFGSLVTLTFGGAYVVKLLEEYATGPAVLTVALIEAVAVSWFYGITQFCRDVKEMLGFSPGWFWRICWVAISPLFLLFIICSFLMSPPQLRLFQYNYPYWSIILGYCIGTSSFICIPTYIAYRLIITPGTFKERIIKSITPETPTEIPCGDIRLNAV
T6 sequence (P28223 whole entry): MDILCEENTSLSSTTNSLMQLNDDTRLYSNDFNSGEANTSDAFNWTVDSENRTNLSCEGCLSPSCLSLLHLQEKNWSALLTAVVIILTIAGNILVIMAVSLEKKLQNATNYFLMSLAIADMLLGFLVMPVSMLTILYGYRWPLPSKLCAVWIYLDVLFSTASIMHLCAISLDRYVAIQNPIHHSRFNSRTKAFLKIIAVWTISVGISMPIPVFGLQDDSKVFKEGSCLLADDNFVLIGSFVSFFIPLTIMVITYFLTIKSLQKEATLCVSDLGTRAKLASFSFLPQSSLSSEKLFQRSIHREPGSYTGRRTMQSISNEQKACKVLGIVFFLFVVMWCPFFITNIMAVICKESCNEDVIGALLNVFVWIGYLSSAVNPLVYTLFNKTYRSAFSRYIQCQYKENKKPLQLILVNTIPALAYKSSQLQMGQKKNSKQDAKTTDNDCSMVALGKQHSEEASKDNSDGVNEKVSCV
T3 sequence (P35462 whole entry): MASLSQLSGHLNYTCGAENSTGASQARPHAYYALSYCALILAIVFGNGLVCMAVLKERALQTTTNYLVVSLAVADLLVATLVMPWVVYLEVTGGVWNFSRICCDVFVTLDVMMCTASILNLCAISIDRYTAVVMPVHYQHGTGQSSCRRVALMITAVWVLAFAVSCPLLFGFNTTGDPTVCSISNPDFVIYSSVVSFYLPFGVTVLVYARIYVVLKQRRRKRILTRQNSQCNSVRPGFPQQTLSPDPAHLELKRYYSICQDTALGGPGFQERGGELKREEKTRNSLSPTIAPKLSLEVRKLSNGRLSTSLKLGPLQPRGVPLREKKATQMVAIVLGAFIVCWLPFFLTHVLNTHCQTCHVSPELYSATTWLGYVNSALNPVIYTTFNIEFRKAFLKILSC
T7 sequence (P34969 whole entry): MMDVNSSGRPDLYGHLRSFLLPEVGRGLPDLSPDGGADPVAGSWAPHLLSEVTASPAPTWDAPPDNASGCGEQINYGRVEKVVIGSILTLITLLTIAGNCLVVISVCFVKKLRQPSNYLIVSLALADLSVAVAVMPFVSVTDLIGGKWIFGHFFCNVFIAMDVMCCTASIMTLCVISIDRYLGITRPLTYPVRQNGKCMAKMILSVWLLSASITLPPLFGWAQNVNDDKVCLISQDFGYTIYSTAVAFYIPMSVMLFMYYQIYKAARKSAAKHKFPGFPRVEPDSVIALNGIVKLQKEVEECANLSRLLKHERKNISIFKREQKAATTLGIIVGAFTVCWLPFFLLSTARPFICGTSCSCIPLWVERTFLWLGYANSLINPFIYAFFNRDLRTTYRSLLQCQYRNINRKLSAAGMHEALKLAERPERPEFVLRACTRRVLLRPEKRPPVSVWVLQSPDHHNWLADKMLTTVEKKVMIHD

Structure (SMILES): O=C(CCCN1CCN(c2cccnc2)CC1)c1ccc(F)cc1
- inhibition [1]: 50%
- Ki [2]: 1170 nM
- Ki [3]: 140 nM
- Ki [4]: 30 nM
- Ki [5]: 97 nM
- Ki [6]: 305 nM
- Ki [7]: 147 nM and 135 nM

Structure (SMILES): O=C(CCCN1CCCN(c2ccc(Cl)cn2)CC1)c1ccc(F)cc1
- Ki [2]: 41 nM
- Ki [3]: 26 nM
- Ki [4]: 37 nM
- Ki [5]: 259 nM
- Ki [6]: 8.9 nM
- Ki [8]: 392 nM
- Ki [7]: 214 nM
- Ki [9]: 37 nM

Structure (SMILES): Fc1ccc(CCCCN2CCN(c3ccccn3)CC2)cc1
- inhibition [1]: 50%

Structure (SMILES): Fc1ccc2c(c1)CC(CCN1CCCN(c3ccccn3)CC1)C2 (stereo not drawn)
- Ki [2]: 599 nM
- Ki [3]: 774 nM
- Ki [4]: 104 nM
- Ki [5]: 615 nM and 589 nM
- Ki [6]: 43 nM
- Ki [8]: 963 nM
- Ki [7]: 267 nM
- Ki [9]: 64 nM

Structure (SMILES): Fc1ccc(CCCCN2CCN(c3ccc(-c4ccccc4)cn3)CC2)cc1
- Ki [2]: > 10000 nM
- Ki [3]: 2090 nM
- Ki [4]: 2260 nM
- Ki [5]: 1460 nM
- Ki [6]: 147 nM
- Ki [8]: > 10000 nM
- Ki [7]: > 10000 nM
- Ki [9]: 2670 nM

Structure (SMILES): Fc1ccc(CCCCN2CCN(c3cccnc3)CC2)cc1
- inhibition [10]: 50%
- inhibition [1]: 50%
- Ki [4]: 16 nM
- Ki [5]: 18 nM
- Ki [6]: 338 nM
- Ki [7]: 267 nM

Structure (SMILES): O=C1c2ccc(F)cc2CC1CCN1CCCN(c2ccc(Cl)cc2)CC1 (stereo not drawn)
- Ki [7]: 72 nM
- Ki [9]: 24 nM

Structure (SMILES): Fc1ccc(CCCCN2CCN(c3cccc(-c4ccccc4)n3)CC2)cc1
- Ki [2]: 641 nM
- Ki [3]: 58 nM
- Ki [4]: 84 nM
- Ki [5]: 155 nM
- Ki [6]: 261 nM
- Ki [8]: 2960 nM
- Ki [7]: 160 nM
- Ki [9]: > 10000 nM

Structure (SMILES): Fc1ccc(CCCCN2C3CCC2CN(c2ccc(Cl)cn2)C3)cc1
- inhibition [10]: 50%
- inhibition [1]: 50%
- Ki [3]: 840 nM
- Ki [4]: 44 nM
- Ki [5]: 94.2 nM
- Ki [6]: 94 nM
- Ki [7]: 339 nM
- Ki [9]: 158 nM

Structure (SMILES): Cc1ccc(N2CCN(CCCCc3ccc(F)cc3)CC2)nc1
- Ki [5]: 92 nM
- Ki [8]: 1610 nM
- Ki [7]: 60 nM
- Ki [9]: 2990 nM

Structure (SMILES): O=C1c2ccc(F)cc2CC1CCN1CCCN(c2ccc(Cl)cn2)CC1 (stereo not drawn)
- Ki [2]: 364 nM
- Ki [3]: 125 nM
- Ki [4]: 36 nM
- Ki [5]: 209 nM
- Ki [6]: 13 nM
- Ki [8]: 355 nM
- Ki [7]: 58 nM
- Ki [9]: 24 nM

Structure (SMILES): O=C(CCCN1CCCN(c2ccccn2)CC1)c1ccc(F)cc1
- Ki [2]: 181 nM
- Ki [3]: 3450 nM
- Ki [4]: 257 nM
- Ki [5]: 1960 nM and 1910 nM
- Ki [6]: 1.2 nM
- Ki [8]: 337 nM
- Ki [7]: 569 nM and 1550 nM

Structure (SMILES): O=C(CCCN1C2CCC1CN(c1ccc(Cl)cn1)C2)c1ccc(F)cc1
- Ki [2]: 1250 nM
- Ki [3]: 1010 nM
- Ki [4]: 119 nM
- Ki [5]: 78 nM
- Ki [6]: 51 nM
- Ki [8]: 1360 nM
- Ki [7]: 335 nM
- Ki [9]: 241 nM

Structure (SMILES): O=C1c2ccc(F)cc2CC1CCN1CCCN(c2ccccn2)CC1 (stereo not drawn)
- inhibition [1]: 50%
- Ki [2]: 649 nM
- Ki [3]: 2290 nM
- Ki [4]: 191 nM
- Ki [5]: 886 nM
- Ki [6]: 59 nM
- Ki [7]: 58 nM
- Ki [9]: 949 nM and 933 nM

- inhibition [10]: 50%
- inhibition [11]: 50%
- inhibition [12]: 50%
- inhibition [13]: 50%
- inhibition [1]: 50%
- inhibition [14]: 50%
- Ki [4]: 2050 nM
Structure (SMILES): Fc1ccc(CCCCN2CCN(c3ccncc3)CC2)cc1
